Assay results: PubChem BioAssay (NCI)
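Tested at 5 concentrations; 48 h exposure; 96-well plates; endpoints linearly interpolated, else capped at highest concentration. GI50 is the concentration that inhibits growth by half. At the TGI there is no net growth.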

How the values were obtained:
Assay in all cases: growth of human tumour cells (NCI), 48 h
SK-OV-3 ovarian = tested on: SK-OV-3 ovarian
PC-3 prostate = tested on: PC-3 prostate
MALME-3M melanoma = tested on: MALME-3M melanoma
MCF7 breast = tested on: MCF7 breast
SN12C renal = tested on: SN12C renal
UACC-62 melanoma = tested on: UACC-62 melanoma
T-47D breast = tested on: T-47D breast
LOX IMVI melanoma = tested on: LOX IMVI melanoma
NCI-H522 lung = tested on: NCI-H522 lung
OVCAR-3 ovarian = tested on: OVCAR-3 ovarian
COLO 205 colon = tested on: COLO 205 colon
EKVX NSCLC = tested on: EKVX NSCLC
SF-539 CNS = tested on: SF-539 CNS
SNB-75 CNS = tested on: SNB-75 CNS
BT-549 breast = tested on: BT-549 breast
SR leukemia = tested on: SR leukemia
HS 578T breast = tested on: HS 578T breast
NCI-H226 lung = tested on: NCI-H226 lung
SK-MEL-28 melanoma = tested on: SK-MEL-28 melanoma
HOP-92 NSCLC = tested on: HOP-92 NSCLC
786-0 renal = tested on: 786-0 renal
U251 CNS = tested on: U251 CNS
CCRF-CEM leukemia = tested on: CCRF-CEM leukemia
OVCAR-5 ovarian = tested on: OVCAR-5 ovarian
MDA-MB-231 breast = tested on: MDA-MB-231 breast
A549 NSCLC = tested on: A549 NSCLC
HT29 colon = tested on: HT29 colon
SK-MEL-5 melanoma = tested on: SK-MEL-5 melanoma
IGROV1 ovarian = tested on: IGROV1 ovarian
SK-MEL-2 melanoma = tested on: SK-MEL-2 melanoma
SW-620 colon = tested on: SW-620 colon
MDA-MB-435 = tested on: MDA-MB-435
RXF 393 renal = tested on: RXF 393 renal
SF-295 CNS = tested on: SF-295 CNS
HL-60(TB) leukemia = tested on: HL-60(TB) leukemia
UACC-257 melanoma = tested on: UACC-257 melanoma
M14 melanoma = tested on: M14 melanoma
RPMI-8226 leukemia = tested on: RPMI-8226 leukemia
DU-145 prostate = tested on: DU-145 prostate
ACHN renal = tested on: ACHN renal
UO-31 renal = tested on: UO-31 renal
OVCAR-8 ovarian = tested on: OVCAR-8 ovarian
HCT-15 colon = tested on: HCT-15 colon
MOLT-4 leukemia = tested on: MOLT-4 leukemia
HCT-116 colon = tested on: HCT-116 colon
HCC-2998 colon = tested on: HCC-2998 colon
A498 renal = tested on: A498 renal
NCI/ADR-RES ovarian = tested on: NCI/ADR-RES ovarian
TK-10 renal = tested on: TK-10 renal
KM12 colon = tested on: KM12 colon
CAKI-1 renal = tested on: CAKI-1 renal
SNB-19 CNS = tested on: SNB-19 CNS
HOP-62 NSCLC = tested on: HOP-62 NSCLC
OVCAR-4 ovarian = tested on: OVCAR-4 ovarian
NCI-H460 lung = tested on: NCI-H460 lung
SF-268 CNS = tested on: SF-268 CNS

COc1cc2c3c(n(CCCNCC4CC4)c(=O)c2cc1OC)-c1cc2c(cc1C3=O)OCO2
GI50 (SK-OV-3 ovarian): 1050 nM | TGI (SK-OV-3 ovarian): 7630 nM | GI50 (PC-3 prostate): 1210 nM | TGI (PC-3 prostate): 2840 nM | GI50 (MALME-3M melanoma): 1490 nM | TGI (MALME-3M melanoma): 2970 nM | GI50 (MCF7 breast): 95.3 nM | TGI (MCF7 breast): 1690 nM | GI50 (SN12C renal): 1370 nM | TGI (SN12C renal): 3230 nM | GI50 (UACC-62 melanoma): 2860 nM | TGI (UACC-62 melanoma): 21100 nM | GI50 (T-47D breast): 7130 nM | TGI (T-47D breast): 25700 nM | GI50 (LOX IMVI melanoma): 349 nM | TGI (LOX IMVI melanoma): 1890 nM | GI50 (NCI-H522 lung): 492 nM | TGI (NCI-H522 lung): 2100 nM | GI50 (OVCAR-3 ovarian): 1420 nM | TGI (OVCAR-3 ovarian): 2840 nM | GI50 (COLO 205 colon): 1110 nM | TGI (COLO 205 colon): 4210 nM | GI50 (EKVX NSCLC): 1780 nM | TGI (EKVX NSCLC): 3480 nM | GI50 (SF-539 CNS): 763 nM | TGI (SF-539 CNS): 2080 nM | GI50 (SNB-75 CNS): 1740 nM | TGI (SNB-75 CNS): 19600 nM | GI50 (BT-549 breast): 12700 nM | TGI (BT-549 breast): 26700 nM | GI50 (SR leukemia): 70.8 nM | TGI (SR leukemia): 1230 nM | GI50 (HS 578T breast): 18800 nM | TGI (HS 578T breast): 59600 nM | GI50 (NCI-H226 lung): 10700 nM | TGI (NCI-H226 lung): 28700 nM | GI50 (SK-MEL-28 melanoma): 14800 nM | TGI (SK-MEL-28 melanoma): 28800 nM | GI50 (HOP-92 NSCLC): 9320 nM | TGI (HOP-92 NSCLC): 21900 nM | GI50 (786-0 renal): 1440 nM | TGI (786-0 renal): 2810 nM | GI50 (U251 CNS): 473 nM | TGI (U251 CNS): 1890 nM | GI50 (CCRF-CEM leukemia): 82 nM | TGI (CCRF-CEM leukemia): 2700 nM | GI50 (OVCAR-5 ovarian): 1740 nM | TGI (OVCAR-5 ovarian): 3290 nM | GI50 (MDA-MB-231 breast): 1440 nM | TGI (MDA-MB-231 breast): 3110 nM | GI50 (A549 NSCLC): 1220 nM | TGI (A549 NSCLC): 2570 nM | GI50 (HT29 colon): 1060 nM | TGI (HT29 colon): 2320 nM | GI50 (SK-MEL-5 melanoma): 10100 nM | TGI (SK-MEL-5 melanoma): 21800 nM | GI50 (IGROV1 ovarian): 1160 nM | TGI (IGROV1 ovarian): 2750 nM | GI50 (SK-MEL-2 melanoma): 20800 nM | TGI (SK-MEL-2 melanoma): 35200 nM | GI50 (SW-620 colon): 573 nM | TGI (SW-620 colon): 2190 nM | GI50 (MDA-MB-435): 1290 nM | TGI (MDA-MB-435): 2570 nM | GI50 (RXF 393 renal): 1490 nM | TGI (RXF 393 renal): 2830 nM | GI50 (SF-295 CNS): 307 nM | TGI (SF-295 CNS): 1530 nM | GI50 (HL-60(TB) leukemia): 1470 nM | TGI (HL-60(TB) leukemia): 3250 nM | GI50 (UACC-257 melanoma): 13600 nM | TGI (UACC-257 melanoma): 26700 nM | GI50 (M14 melanoma): 1090 nM | TGI (M14 melanoma): 2380 nM | GI50 (RPMI-8226 leukemia): 636 nM | TGI (RPMI-8226 leukemia): 3310 nM | GI50 (DU-145 prostate): 759 nM | TGI (DU-145 prostate): 2110 nM | GI50 (ACHN renal): 439 nM | TGI (ACHN renal): 1570 nM | GI50 (UO-31 renal): 1410 nM | TGI (UO-31 renal): 2790 nM | GI50 (OVCAR-8 ovarian): 1110 nM | TGI (OVCAR-8 ovarian): 2660 nM | GI50 (HCT-15 colon): 1250 nM | TGI (HCT-15 colon): 2800 nM | GI50 (MOLT-4 leukemia): 38.5 nM | TGI (MOLT-4 leukemia): 1540 nM | GI50 (HCT-116 colon): 1140 nM | TGI (HCT-116 colon): 2540 nM | GI50 (HCC-2998 colon): 1240 nM | TGI (HCC-2998 colon): 2550 nM | GI50 (A498 renal): 12600 nM | TGI (A498 renal): 25400 nM | GI50 (NCI/ADR-RES ovarian): 1070 nM | TGI (NCI/ADR-RES ovarian): 2890 nM | GI50 (TK-10 renal): 15600 nM | TGI (TK-10 renal): 29200 nM | GI50 (KM12 colon): 1370 nM | TGI (KM12 colon): 3120 nM | GI50 (CAKI-1 renal): 990 nM | TGI (CAKI-1 renal): 2150 nM | GI50 (SNB-19 CNS): 781 nM | TGI (SNB-19 CNS): 2470 nM | GI50 (HOP-62 NSCLC): 354 nM | TGI (HOP-62 NSCLC): 1600 nM | GI50 (OVCAR-4 ovarian): 1730 nM | TGI (OVCAR-4 ovarian): 3350 nM | GI50 (NCI-H460 lung): 243 nM | TGI (NCI-H460 lung): 1460 nM | GI50 (SF-268 CNS): 764 nM | TGI (SF-268 CNS): 2490 nM
